SMILES strings stand for the structures. ≈ marks a conversion by molar mass, not a printed value.

The text below walks through data of ChEMBL document CHEMBL1131712, “Short synthesis and anti-rhinoviral activity of imidazo[1,2-a]pyridines: the effect of acyl groups at 3-position” (Bioorg Med Chem Lett, 1999).

In one data set the test system is rhinovirus B14. Put plainly: Inhibitory concentration required against Human rhinovirus-14 (HRV-14) using plaque reduction assay. It is filed as functional, organism-based, Enterovirus. Particulars: Rhinovirus B. On the technique in general: Plaques are areas of infected cells; plaque reduction assays count them against a control.
Data set [1] in a line: Cellular toxic concentration against Human rhinovirus-14 (HRV-14) using cytopathic effect assay(CPE/XTT). It is filed as organism-based, Enterovirus. Particulars: read-out: TC50 (the source's name).

`CNC(=O)/C=C(\c1ccccc1)c1ccc2nc(N)c(C(=O)c3ccc(F)cc3)n2c1`: in the data set with rhinovirus B14, half-maximal inhibition (IC50) was put at 0.37 µg/mL (≈ 0.893 µM). For the same molecule, the CC50 in data set [1] worked out at 3.97 µg/mL (≈ 9.58 µM).

In the case of `CNC(=O)/C=C(\c1ccccc1)c1ccc2nc(N)c(C(=O)c3ccccc3)n2c1`, the IC50 with rhinovirus B14 turned out to be 0.24 µg/mL (≈ 0.605 µM). The CC50 in data set [1] worked out at 2.95 µg/mL (≈ 7.44 µM).

Molecule `CNC(=O)/C=C(\c1ccccc1)c1ccc2nc(N)c(C(C)=O)n2c1` registered an IC50 in the data set with rhinovirus B14 of 2.48 µg/mL (≈ 7.42 µM). In addition, the CC50 in data set [1] was found to be 22.8 µg/mL (≈ 68.2 µM).

Molecule `CNC(=O)/C=C(\c1ccccc1)c1ccc2nc(N)c(C(=O)C(C)(C)C)n2c1` yielded an IC50 in the data set on rhinovirus B14 of 0.17 µg/mL (≈ 0.452 µM). For the same molecule, the CC50 in data set [1] is above 10 µg/mL.

On to `CC(C)S(=O)(=O)n1c(N)nc2ccc(/C(=N/O)c3ccccc3)cc21` [ENVIROXIME], for which, in the data set on rhinovirus B14, half-maximal inhibition (IC50) required 0.045 µg/mL (≈ 0.126 µM).

What is called IC50 is the midpoint of a concentration-inhibition curve. A lower IC50 goes with higher potency.
